Measured values taken from US20090215025A1, “SMALL PEPTIDIC AND PEPTIDO-MIMETIC AFFINITY LIGANDS FOR FACTOR VIII AND FACTOR VIII-LIKE PROTEINS” (TECHNISCHE UNIVERSITAT MUNCHEN, priority 2005, published 2009).
[ ]: non-standard residue; d: D form. Bpa = N[C@@H](Cc1ccc(C(=O)c2ccccc2)cc1)C(=O)O; 1Nal = N[C@@H](Cc1cccc2ccccc12)C(=O)O; 2Nal = N[C@@H](Cc1ccc2ccccc2c1)C(=O)O

Columns and labels:
[1] = target: T1, plasma-derived (pd-) human Factor VIII (FVIII) (Homo sapiens, UniProt P00451); test: Binding of 125I-labeled pd-FVIII to peptides immobilized on Toyopearl AF-Epoxy-650M resin (micro-beads assay)
T1 construct: from tissue; host or cells: human blood plasma (FVIII concentrate)
Experimental: Peptides P1 to P25 were immobilized on the Toyopearl AF-Epoxy-650M resin (Tosoh Biosep) as described by Jungbauer et al. For immobilization, 2.5 mg of each peptide was dissolved in 0.25 mL of the immobilization buffer (0.2 M sodium bicarbonate, pH 10.3), and 0.036 g of the dry resin powder (corresponding to 0.125 mL of swollen resin) was added, followed by incubation of the mixture with gentle rotation for 48 hours. Upon incubation for 48 hours the resin was washed once with immobilization buffer, once with 1 M NaCl and then 3 times with binding buffer, and binding of ^125I-labeled pd-FVIII to the peptide-coated and control resin was tested. The coupling density of each peptide in each of the reported experiments was as mentioned in Table 1. The control 0.25 mL portion of the resin was similarly treated in parallel experiment in the absence of peptide and was subsequently used as a control (designated as Background) in ^125I-pd-FVIII binding experiments. ^125I-pd-FVIII Bound/Background ratios were calculated as the amount of ^125I-pd-FVIII, bound to an immobilized peptide, divided by that bound to uncoated control resin, prepared as described above. This ratio represents a Signal/Noise ratio for the micro-beads assay, since ^125I-pd-FVIII bound to peptide represents the signal value and ^125I-pd-FVIII bound to peptide-uncoated resin represents the background (noise) value.
Plasma-derived (pd-) human Factor VIII (FVIII) was purified from concentrate by immunoaffinity chromatography on an anti-FVIII monoclonal antibody column followed by subsequent concentration of pd-FVIII by ion-exchange chromatography using Resource Q HR5/5 column. To separate FVIII from vWf, concentrate was incubated in 0.35 M NaCl, 0.04 M CaCl2, prior to affinity purification.
Trace amounts of vWf, which are potentially present in pd-FVIII preparation, were removed by passing pd-FVIII preparation through the column with anti-vWf high affinity monoclonal antibody, immobilized at the density 1.4 mg per mL of resin.
Ten μg of purified pd-FVIII were iodinated using lactoperoxidase beads and 0.5 mCi of Na^125I.
The resin with immobilized peptides was washed in the binding buffer (0.01 M Hepes, 0.1 M NaCl, 5 mM CaCl2, 0.01% Tween-80). Subsequently, the resin was diluted in the binding buffer as 1:7 slurry and aliquoted into Eppendorf tubes (40 μl per tube). ^125I-pd-FVIII (100000 cpm in 10 μl) was added to the tubes and the volume of the mixture was adjusted to 100 μl by adding 50 μl of the binding buffer containing 4% BSA to give a 2% final concentration of BSA. After 2 hours of incubation at room temperature on a rotator, the samples were washed 4 times in the binding. After each wash the tubes were centrifuged at 5000 rpm for 1 min in an Eppendorf microcentrifuge, supernatant was discarded, and the resin was re-suspended in the washing buffer, followed by centrifugation under the same conditions. After four washes the tubes with pellet without supernatant were counted for radioactivity. The resin without peptide was processed similarly to account for non-specific pd-FVIII binding to tubes and resin itself, and the radioactivity in this control tube was considered as a background value. Since ^125I-pd-FVIII contains the some fraction damaged during radiolabeling, binding was calculated as a percent of maximal achievable binding, determined in separate experiment with anti-FVIII Mab 8860-coated resin.
All the measurements were performed in duplicates. Each experiment was performed using two independently prepared immobilized peptide samples. The data presented in each figure are the mean values of the four determinations: duplicate determination in the two assays performed with beads on which peptides were independently immobilized on the different days. […]

pd-FVIII [2] = target: T2, pd-FVIII (Homo sapiens, UniProt P00451); test: Affinity chromatography purification of FVIII on peptide-coated resin column (OD280, one-stage APTT activity); details: P1; FBS-containing conditioned DMEM spiked with FVIII
T2 construct: from tissue; host or cells: human blood plasma (FVIII concentrate)

pd-FVIII [3] = target: T2, pd-FVIII; test: as above; details: P1; Pure fVIII
Experimental: The peptido-mimetic derivative P22 was immobilized on the Toyopearl resin as described in Example 1. 25 mg of peptide and 360 mg of resin were used. The resulting resin (˜1 ml) was packed in a glass column (Pharmacia-Biotech). The purification procedure was performed using a Waters 650E Advanced Protein Purification System. Buffer A was 0.01 M Hepes, 0.1 M NaCl, 5 mM CaCl2, 0.01% Tween-80 and Buffer B was 0.01 M Hepes, 1 M NaCl, 5 mM CaCl2, 0.01% Tween-80 (pH 6.8). The elution was monitored by a flow-through UV detector (Waters 490 E) by optical density at 280 nm (OD280). The elution fractions were then analyzed for their protein content by determining OD280 and FVIII activity was determined in a one-stage APTT assay using MLA Electra-800 automatic coagulation timer. The samples from elution fractions were analyzed by 10% PAGE followed by silver staining and Western blotting using monoclonal antibodies against FVIII.
FVIII (0.5 mg), previously purified by immunoaffinity and ion-exchange chromatography as described above, was diluted by 0.01 M Hepes, 5 mM CaCl2, 0.01% Tween-80 to a final salt concentration of 0.1 M NaCl. The mixture was applied onto the P22-column, followed by wash with Buffer A, until the OD280 returned to background.
The purification of FVIII was performed from cell-conditioned FBS-containing SF9 media, spiked with FVIII. FVIII (0.5 mg), previously purified by immunoaffinity and ion-exchange chromatography as described above, was mixed with cell-conditioned FBS-containing SF9 media, which was diluted with 0.01 M Hepes, 5 mM CaCl2, 0.01% Tween-80 to a final salt concentration of 0.1 M NaCl. The mixture was applied onto the column, followed by wash with Buffer A, until the OD280 returned to background. The wash with 85% Buffer A 15% Buffer B was performed to elute some of bound contaminating proteins.
Peptide P1 was bonded to the resin as described in Example 1. 25 mg of peptide and 360 mg of resin were used. The resulting resin (˜1 ml) was packed in a glass column (Pharmacia-Biotech). A FVIII containing sample was purified as described with respect to Example 3, the only difference between the two experiments being the absence of a prelusion step with Buffer A in the present experiment.

[4] = Table 1, 125I-pd-FVIII Bound/Background ratio versus uncoated control resin
[5] = Table 1, immobilized on Toyopearl AF-Epoxy-650M, percent of maximal achievable binding (anti-FVIII Mab 8860-coated resin), mean of four determinations

T2 sequence (P00451 20-1667 limits assumed): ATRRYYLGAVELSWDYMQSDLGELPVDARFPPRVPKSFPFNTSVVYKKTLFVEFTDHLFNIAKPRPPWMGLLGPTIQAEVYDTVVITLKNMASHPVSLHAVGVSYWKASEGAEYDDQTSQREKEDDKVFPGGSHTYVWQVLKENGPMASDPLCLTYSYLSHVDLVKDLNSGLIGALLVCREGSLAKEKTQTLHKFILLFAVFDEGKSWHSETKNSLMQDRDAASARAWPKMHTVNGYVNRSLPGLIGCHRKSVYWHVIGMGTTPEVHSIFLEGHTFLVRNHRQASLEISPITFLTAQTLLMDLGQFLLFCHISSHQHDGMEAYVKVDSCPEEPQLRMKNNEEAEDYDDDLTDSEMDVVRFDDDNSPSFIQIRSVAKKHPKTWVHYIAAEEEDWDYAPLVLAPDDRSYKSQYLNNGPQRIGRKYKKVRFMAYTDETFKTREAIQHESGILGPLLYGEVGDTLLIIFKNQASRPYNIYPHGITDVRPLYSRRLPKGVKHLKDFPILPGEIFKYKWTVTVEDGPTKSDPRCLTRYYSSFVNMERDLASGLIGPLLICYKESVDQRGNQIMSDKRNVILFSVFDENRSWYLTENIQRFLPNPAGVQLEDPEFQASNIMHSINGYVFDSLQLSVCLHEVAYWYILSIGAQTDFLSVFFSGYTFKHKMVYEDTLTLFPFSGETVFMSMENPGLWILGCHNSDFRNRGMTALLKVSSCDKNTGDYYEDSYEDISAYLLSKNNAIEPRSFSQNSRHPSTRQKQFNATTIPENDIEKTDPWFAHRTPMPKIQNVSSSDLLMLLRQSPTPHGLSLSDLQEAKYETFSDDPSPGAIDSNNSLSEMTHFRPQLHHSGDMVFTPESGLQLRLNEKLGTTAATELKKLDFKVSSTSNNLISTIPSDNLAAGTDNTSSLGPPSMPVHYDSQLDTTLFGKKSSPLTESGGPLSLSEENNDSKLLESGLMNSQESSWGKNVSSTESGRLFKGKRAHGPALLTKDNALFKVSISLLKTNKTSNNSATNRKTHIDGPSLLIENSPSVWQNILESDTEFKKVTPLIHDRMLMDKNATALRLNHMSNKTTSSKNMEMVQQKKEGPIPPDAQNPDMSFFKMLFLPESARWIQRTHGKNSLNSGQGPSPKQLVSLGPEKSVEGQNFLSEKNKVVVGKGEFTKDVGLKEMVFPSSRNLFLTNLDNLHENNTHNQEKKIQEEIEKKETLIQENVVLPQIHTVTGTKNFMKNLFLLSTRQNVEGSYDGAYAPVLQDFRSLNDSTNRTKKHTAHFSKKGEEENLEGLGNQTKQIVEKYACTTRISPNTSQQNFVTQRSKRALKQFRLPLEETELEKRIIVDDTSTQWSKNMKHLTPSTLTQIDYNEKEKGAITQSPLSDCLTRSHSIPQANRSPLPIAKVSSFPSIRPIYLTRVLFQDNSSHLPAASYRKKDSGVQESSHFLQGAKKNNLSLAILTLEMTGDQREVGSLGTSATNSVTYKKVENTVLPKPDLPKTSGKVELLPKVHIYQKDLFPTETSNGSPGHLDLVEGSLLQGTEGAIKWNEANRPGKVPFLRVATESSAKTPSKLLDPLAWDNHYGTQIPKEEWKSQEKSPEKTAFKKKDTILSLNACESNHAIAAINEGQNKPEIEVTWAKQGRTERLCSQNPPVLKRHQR
T2 sequence (P00451 1668-2351 limits assumed): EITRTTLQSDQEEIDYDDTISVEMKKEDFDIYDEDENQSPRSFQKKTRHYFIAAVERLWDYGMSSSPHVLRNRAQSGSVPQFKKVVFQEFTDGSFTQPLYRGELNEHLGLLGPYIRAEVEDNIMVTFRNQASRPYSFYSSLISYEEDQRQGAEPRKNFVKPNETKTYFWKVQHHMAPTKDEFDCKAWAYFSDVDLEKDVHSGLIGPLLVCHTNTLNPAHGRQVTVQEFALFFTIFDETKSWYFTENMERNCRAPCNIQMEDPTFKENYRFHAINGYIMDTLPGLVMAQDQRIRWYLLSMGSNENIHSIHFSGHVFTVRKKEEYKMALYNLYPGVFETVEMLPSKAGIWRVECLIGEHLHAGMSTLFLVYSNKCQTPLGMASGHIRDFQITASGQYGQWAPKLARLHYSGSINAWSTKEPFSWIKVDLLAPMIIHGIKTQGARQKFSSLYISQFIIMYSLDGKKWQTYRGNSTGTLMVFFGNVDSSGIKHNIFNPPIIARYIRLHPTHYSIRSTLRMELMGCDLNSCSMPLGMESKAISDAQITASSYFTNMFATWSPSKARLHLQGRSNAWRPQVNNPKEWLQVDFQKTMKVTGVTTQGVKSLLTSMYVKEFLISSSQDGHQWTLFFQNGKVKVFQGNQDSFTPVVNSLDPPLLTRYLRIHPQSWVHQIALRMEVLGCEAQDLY
T1 sequence (P00451 20-1667 limits assumed): as the sequence (P00451 20-1667 limits assumed) above
T1 sequence (P00451 1668-2351 limits assumed): as the sequence (P00451 1668-2351 limits assumed) above

Molecule	Binding, rel. to control [1, 4]	% Binding pdFVIII [1, 5] [%]	also measured
Ac-Trp-Glu-Tyr-Cys-NH2 (Ac-WEYC-NH2) [Compound P2]	18.9 ± 2.0	53.6 ± 5.7	
H-Trp-Glu-Tyr-Cys-OH (H-WEYC-OH) [Compound P1]	20.9 ± 1.7	47.6 ± 4.0	Activity, Elution (pd-FVIII [2]): 66 IU/ml; Activity, Flow-through (pd-FVIII [2]): 6 IU/ml; OD 280, Elution (pd-FVIII [2]): 0.08; OD 280, Flow-through (pd-FVIII [2]): 0.49; Purification, times (pd-FVIII [2]): 13 times; Activity, Elution (pd-FVIII [3]): 552 IU/ml; Activity, Flow-through (pd-FVIII [3]): 9 IU/ml; OD 280, Elution (pd-FVIII [3]): 0.108; OD 280, Flow-through (pd-FVIII [3]): 0.02; Purification, times (pd-FVIII [3]): 2 times
H-[1Nal]EYC-OH [Compound P13]	26.1 ± 2.3	66.8 ± 5.9	
H-Trp-Glu-Tyr-Gly-Aha-Cys-OH [Compound P6]	15.2 ± 0.7	43.1 ± 2.0	
ECYYEHWS [scrambled, reference compound]			% Binding pdFVIII ([1]; Table 2, comparative compound immobilized on Toyopearl AF-Epoxy-650M): 6.5 ± 0.5%; Binding, rel. to control ([1]; Table 2, ratio versus uncoated resin): 4.1 ± 0.3
H-WE[1Nal]C-OH [Compound P9]	23.8 ± 2.2	60.9 ± 5.5	
H-[Bpa]EYC-OH [Compound P12]	22.3 ± 0.5	57.0 ± 1.39	
H-Trp-Glu-Phe-Cys-OH (H-WEFC-OH) [Compound P8]	8.7 ± 0.1	24.7 ± 0.1	
H-D-Cys-D-Tyr-D-Glu-D-Trp-OH [Compound P7]	19.8 ± 0.3	56.1 ± 0.9	
H-Trp-Glu-Tyr-Gly-Cys-OH (H-WEYGC-OH) [Compound P4]	27.4 ± 1.3	52.7 ± 2.5	
H-Trp-Glu-Tyr-Aha-Cys-OH [Compound P5]	22.2 ± 1.9	42.7 ± 2.3	
H-Trp-Glu-Tyr-homo-Cys-OH [Compound P3]	21.9 ± 1.3	38.4 ± 2.3	
H-Trp-Glu-Tyr(OMe)-Cys-OH [Compound P10]	19.0 ± 3.0	54.1 ± 8.4	
H-[2Nal]EYC-OH [Compound P14]	22.7 ± 2.4	58.1 ± 6.1	

Now from value to molecule, other results behind:

Binding, rel. to control [1, 4]	% Binding pdFVIII [1, 5] [%]	Molecule	also measured
20.2 ± 2.5	57.2 ± 7.2	IBA-Asp-Tyr-Cys-OH [Compound P18]	
21.4 ± 1.4	60.7 ± 4.1	IPA-Asp-Tyr-Cys-OH [Compound P20]	
22.7 ± 0.8	53.7 ± 1.9	O=C(O)CCC(NCCc1c[nH]c2ccccc12)C(=O)NC(Cc1ccc(O)cc1)C(=O)NC(CS)C(=O)O (stereo not shown) [Compound P25]	
24.7 ± 1.5	62.7 ± 3.9	IBA-Glu-Tyr-Cys-OH [Compound P17]	
24.7 ± 2.7	62.8 ± 6.9	H-Trp-Asp-Tyr-Cys-OH (H-WDYC-OH) [Compound P11]	
24.7 ± 0.3	70.1 ± 0.8	IAA-Asp-Tyr-Cys-OH [Compound P16]	
18.7 ± 1.7	53.2 ± 4.9	IPA-Glu-Tyr-Cys-OH [Compound P19]	
